In brackets after ≈: the same amount, converted by molar mass. Read-outs that look alike come from different tables or passages of the source.
Key:
[1] = target: T1, PI3K alfa (Homo sapiens, UniProt P42336); experiment: PI3K alpha kinase assay (Kinase-Glo luminescence); type: biochemical
T1 construct: His tag (C); made in house; host or cells: baculovirus BV1075; Tn5 (Trichoplusia ni) or TiniPro insect cells
Method in brief: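 IC50 values come from a four-parameter logistic fit of percent inhibition at eight concentrations, typically 10 to 0.003 μM. Recombinant PI3Kα at 10 nM turned over 1 μM ATP with 10 μg/mL PI for 60 min at room temperature, and residual ATP was measured by Kinase-Glo.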

[2] = High-throughput equilibrium solubility at pH 6.8; type: physicochemical; conditions: pH 6.8, aqueous buffer, thermodynamic from solid; read-out: HT-Eq Sol/pH 6.8
Method in brief: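 Following the procedure of Zhou et al. (2007), compound solubility was determined at pH 6.8.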

[3] = target: T2, PI3K beta (Homo sapiens, UniProt P42338); experiment: PI3K beta kinase assay (Kinase-Glo luminescence); type: biochemical
T2 construct: for the full-length p110-b subunit are generated and fused by overlapping PCR; His tag (C); made in house; host or cells: baculovirus BV949; Tn5 (Trichoplusia ni) or TiniPro insect cells
Method in brief: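 Kinase-Glo luminescence read out ATP left after a 60-min room-temperature reaction, started with ATP (1 μM final) on 25 nM His-tagged p85 iSH2–p110β (BV949) plus 10 μg/mL PI substrate in pH 7.5 Tris buffer. Percent inhibition at eight concentrations was fitted to a four-parameter logistic model for IC50.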

T2 sequence (P42338 with tags, fused parts or gaps limits assumed): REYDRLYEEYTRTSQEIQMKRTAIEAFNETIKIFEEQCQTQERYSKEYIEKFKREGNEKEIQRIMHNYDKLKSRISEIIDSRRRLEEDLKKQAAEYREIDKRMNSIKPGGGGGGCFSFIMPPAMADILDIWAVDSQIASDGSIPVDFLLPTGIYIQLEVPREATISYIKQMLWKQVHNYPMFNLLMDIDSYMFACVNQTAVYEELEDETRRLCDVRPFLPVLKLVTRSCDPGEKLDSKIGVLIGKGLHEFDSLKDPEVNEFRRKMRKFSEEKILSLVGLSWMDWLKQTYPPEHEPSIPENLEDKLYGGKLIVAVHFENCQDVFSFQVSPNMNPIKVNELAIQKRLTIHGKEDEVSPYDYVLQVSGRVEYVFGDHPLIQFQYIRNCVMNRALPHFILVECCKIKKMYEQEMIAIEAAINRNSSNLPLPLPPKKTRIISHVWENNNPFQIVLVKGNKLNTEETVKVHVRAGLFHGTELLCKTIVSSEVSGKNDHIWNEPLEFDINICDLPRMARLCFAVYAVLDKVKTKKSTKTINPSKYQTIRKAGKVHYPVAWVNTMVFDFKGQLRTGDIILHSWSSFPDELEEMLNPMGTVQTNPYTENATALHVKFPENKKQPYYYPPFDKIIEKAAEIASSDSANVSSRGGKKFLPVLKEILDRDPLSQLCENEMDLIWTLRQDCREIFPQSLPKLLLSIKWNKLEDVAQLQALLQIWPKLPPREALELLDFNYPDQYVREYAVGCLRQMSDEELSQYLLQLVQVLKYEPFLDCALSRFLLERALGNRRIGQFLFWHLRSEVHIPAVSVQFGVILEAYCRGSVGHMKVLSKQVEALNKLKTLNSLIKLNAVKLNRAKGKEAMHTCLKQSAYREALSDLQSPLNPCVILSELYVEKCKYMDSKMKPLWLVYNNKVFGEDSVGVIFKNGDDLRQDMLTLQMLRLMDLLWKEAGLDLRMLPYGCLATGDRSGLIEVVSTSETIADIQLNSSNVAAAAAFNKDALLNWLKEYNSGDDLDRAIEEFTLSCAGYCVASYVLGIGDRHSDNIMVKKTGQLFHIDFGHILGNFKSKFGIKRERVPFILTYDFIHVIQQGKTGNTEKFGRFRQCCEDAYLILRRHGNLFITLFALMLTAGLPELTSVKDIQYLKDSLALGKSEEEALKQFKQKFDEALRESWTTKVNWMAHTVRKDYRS
T1 sequence (P42336 with tags, fused parts or gaps limits assumed): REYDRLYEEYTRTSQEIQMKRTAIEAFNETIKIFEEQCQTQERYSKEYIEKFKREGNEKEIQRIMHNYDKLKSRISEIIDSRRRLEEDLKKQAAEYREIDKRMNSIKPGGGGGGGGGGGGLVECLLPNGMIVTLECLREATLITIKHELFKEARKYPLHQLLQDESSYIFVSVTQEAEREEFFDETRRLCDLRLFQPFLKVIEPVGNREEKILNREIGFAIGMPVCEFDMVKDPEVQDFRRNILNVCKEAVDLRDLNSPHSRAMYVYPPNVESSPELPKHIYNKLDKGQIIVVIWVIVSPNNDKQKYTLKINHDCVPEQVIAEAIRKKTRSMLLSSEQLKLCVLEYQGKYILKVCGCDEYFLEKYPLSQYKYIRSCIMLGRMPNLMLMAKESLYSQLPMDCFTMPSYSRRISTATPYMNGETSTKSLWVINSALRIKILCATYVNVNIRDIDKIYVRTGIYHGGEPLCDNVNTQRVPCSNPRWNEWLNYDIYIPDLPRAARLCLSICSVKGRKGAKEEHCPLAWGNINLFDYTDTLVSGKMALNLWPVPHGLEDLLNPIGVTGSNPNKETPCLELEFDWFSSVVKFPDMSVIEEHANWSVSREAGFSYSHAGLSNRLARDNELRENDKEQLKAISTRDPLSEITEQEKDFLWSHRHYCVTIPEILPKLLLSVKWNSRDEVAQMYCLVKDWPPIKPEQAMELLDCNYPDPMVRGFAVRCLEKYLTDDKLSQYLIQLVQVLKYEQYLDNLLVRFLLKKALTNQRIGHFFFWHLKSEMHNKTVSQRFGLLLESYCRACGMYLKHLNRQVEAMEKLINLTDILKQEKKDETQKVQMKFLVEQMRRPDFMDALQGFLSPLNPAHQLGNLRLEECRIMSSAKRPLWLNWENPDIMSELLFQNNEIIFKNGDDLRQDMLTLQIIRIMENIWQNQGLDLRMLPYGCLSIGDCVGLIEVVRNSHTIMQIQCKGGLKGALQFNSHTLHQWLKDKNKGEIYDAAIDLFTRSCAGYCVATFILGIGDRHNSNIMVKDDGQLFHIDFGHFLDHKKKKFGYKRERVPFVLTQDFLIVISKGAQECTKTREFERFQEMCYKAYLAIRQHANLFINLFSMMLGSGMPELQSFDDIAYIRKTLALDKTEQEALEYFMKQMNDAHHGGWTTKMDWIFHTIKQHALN

IC50 ([1]; read-out: PI3Kalfa/IC50) [nM] | solubility thermodynamic [2] [µg/mL] | IC50 ([3]; read-out: PI3Kbeta/IC50) [nM] | IC50 ([1]; read-out: EPK_PI3Kalfa/IC50) [nM] | IC50 ([3]; read-out: EPK_PI3Kbeta/IC50) [nM] | SMILES
32 | 3 (≈ 6.84 µM) | 309 |  |  | Cc1nc(F)ccc1-n1c(=O)n(C)c2cnc3ccc(-c4cnc5c(ccn5C)c4)cc3c21 [Example 7.2, 1-(6-Fluoro-2-methyl-pyridin-3-yl)-3-methyl-8-(1-methyl-1H-pyrrolo[2,3-b]pyridin-5-yl)-1,3-dihydro-imidazo[4,5-c]quinolin-2-one]
 | 27 (≈ 61.3 µM) |  | 14 | 67 | CCNc1cc(-c2ccc3ncc4c(c3c2)n(-c2cccnc2C)c(=O)n4C)cnc1CO [Example 2.31, 8-(5-Ethylamino-6-hydroxymethyl-pyridin-3-yl)-3-methyl-1-(2-methyl-pyridin-3-yl)-1,3-dihydro-imidazo[4,5-c]quinolin-2-one]
58 | 61 (≈ 119 µM) | 267 |  |  | CCOc1ccc(-c2ccc3ncc4c(c3c2)n(-c2ccc(N3CCNCC3)nc2OC)c(=O)n4C)cn1 [Example 9.1, 8-(6-Ethoxy-pyridin-3-yl)-1-(2-methoxy-6-piperazin-1-yl-pyridin-3-yl)-3-methyl-1,3-dihydro-imidazo[4,5-c]quinolin-2-one]
 | 99 (≈ 200 µM) |  | < 3 | < 3 | Cc1nc(N2CCCC2)ccc1-n1c(=O)n(C)c2cnc3ccc(-c4cncc(C(C)(C)O)c4)cc3c21 [Example 25.3, 8-[5-(1-Hydroxy-1-methyl-ethyl)-pyridin-3-yl]-3-methyl-1-(2-methyl-6-pyrrolidin-1-yl-pyridin-3-yl)-1,3-dihydro-imidazo[4,5-c]quinolin-2-one]
 | 8 (≈ 18.9 µM) |  | 179 | 782 | Cc1ncccc1-n1c(=O)n(C)c2cnc3ccc(-c4cncc(N5CCC5)c4)cc3c21 [Example 2.29, 8-(5-Azetidin-1-yl-pyridin-3-yl)-3-methyl-1-(2-methyl-pyridin-3-yl)-1,3-dihydro-imidazo[4,5-c]quinolin-2-one]
 | 44 (≈ 82.2 µM) |  | 17 | 69 | CNc1ncc(-c2ccc3ncc4c(c3c2)n(-c2ccc(N3CC(O)C3)nc2C)c(=O)n4C)cc1C(F)(F)F [Example 29.4, 1-[6-(3-Hydroxy-azetidin-1-yl)-2-methyl-pyridin-3-yl]-3-methyl-8-(6-methylamino-5-trifluoromethyl-pyridin-3-yl)-1,3-dihydro-imidazo[4,5-c]quinolin-2-one]
14 | 56 (≈ 141 µM) | 226 |  |  | CNc1ccc(-c2ccc3ncc4c(c3c2)n(-c2cccnc2C)c(=O)n4C)cn1 [Example 2.13, 3-Methyl-8-(6-methylamino-pyridin-3-yl)-1-(2-methyl-pyridin-3-yl)-1,3-dihydro-imidazo[4,5-c]quinolin-2-one]
 | 204 (≈ 424 µM) |  | 7 | 19 | Cc1nc(N2CCC2)ccc1-n1c(=O)n(C)c2cnc3ccc(-c4cncc(C(C)(C)O)c4)cc3c21 [Example 23.3, 1-(6-Azetidin-1-yl-2-methyl-pyridin-3-yl)-8-[5-(1-hydroxy-1-methyl-ethyl)-pyridin-3-yl]-3-methyl-1,3-dihydro-imidazo[4,5-c]quinolin-2-one]
 | 111 (≈ 220 µM) |  | 31 | 30 | Cc1nc(C(C)(C)O)ccc1-n1c(=O)n(C)c2cnc3ccc(-c4cncc(C5(C#N)CCC5)c4)cc3c21 [Example 31.8, 1-(5-{1-[6-(1-Hydroxy-1-methyl-ethyl)-2-methyl-pyridin-3-yl]-3-methyl-2-oxo-2,3-dihydro-1H-imidazo[4,5-c]quinolin-8-yl}-pyridin-3-yl)-cyclobutanecarbonitrile]
 | 427 (≈ 814 µM) |  | 18 | 48 | COC1CCN(c2ccc(-n3c(=O)n(C)c4cnc5ccc(-c6cncc(C(C)(C)O)c6)cc5c43)c(C)n2)C1 (stereo not drawn) [Example 28.1, 8-[5-(1-Hydroxy-1-methyl-ethyl)-pyridin-3-yl]-1-[6-(3-methoxy-pyrrolidin-1-yl)-2-methyl-pyridin-3-yl]-3-methyl-1,3-dihydro-imidazo[4,5-c]quinolin-2-one]

From patent US20100311714A1, “1H-IMIDAZO[4,5-c]QUINOLINONE COMPOUNDS” (priority 2009, published 2010)
